# Test system: oligodendrocyte precursor cells (OPC) in mixed brain cultures
# Assay: Oligodendrocyte precursor cells (OPC) proliferation, O4+ cell count
# Format: cell-based, mouse
# Conditions: 10 uM
# Protocol: The effect of compounds of the present disclosure was determined on oligodendrocyte precursor cells proliferation (OPC).
# Cell culture. Brains of wild type mice (whole brain from 1 or 2 mouse pups) less than postnatal day (P) 2 were isolated and cultured. Briefly, following removal of the meninges, cells were dissociated with 0.25% EDTA/CMF-DMEM and 1% Trypsin (1:1), plated at a density of 75,000 cells/on 0.1 mg/ml poly-L-lysine coated borosilicate glass coverslips in 24-well plates, grown in OPC differentiation media (Oligo media) consisting of DMEM/F12 (Invitrogen 21331-020) supplemented with 1% FBS, 1% N2 Neural Supplement (Invitrogen 17502-048) and PDGF receptor alpha growth factor (Invitrogen 17502-048). Cells were fed every other day and allowed to grow for 7 days in vitro (DIV).
# OPCs treatment with compounds of the present disclosure. Cells were treated with compounds of the present disclosure (50-10 μM) or vehicle (0.1% DMSO) starting at 7 DIV. Media was replaced daily with freshly made working solutions of compounds or vehicle for either 48 h (9 DIV total) or 96 h (11 DIV). The 48 h group consisted of 1 coverslip per condition. The 96 h group was treated in duplicate.
# Fresh aliquots of compounds of the present disclosure were made up on the day of treatment, briefly, a 50 mM stock was thawed and used to make up fresh 50 μM working solution in Oligo Media. The fresh 50 μM working solution was diluted further in Oligo Media to make 10 μM working solution. Vehicle controls was made up in fresh Oligo Media using the appropriate amount of vehicle (DMSO). Coverslips were stored in clean 24-well plates at 4° C. until fixed-staining. Cells were imaged using Leica DM5500 fluorescent microscope with LAS-X software.
# Exposure settings were maintained at the same rate across compounds of the same time-point. Cells were imaged at 20× and 40× magnifications. At least 5 images were taken per condition. Most conditions had at least 5 images that were counted. 20× images were utilized for counting DAPI (cell nuclei) and O4+ cells.
# Total DAPI per image for all images was counted using ImageJ as here indicated. • Image was converted to 8 bit • Blue Channel (DAPI) was automatically thresholded by default ImageJ settings • Image noise was reduced by ImageJ>Process>Noise>Despeckle • ImageJ>Process>Binary>Watershed was used to automatically separate merged cell nuclei • ImageJ>Analyze>Analyze Particles was used to obtain final count of DAPI per image • Total number of DAPI-positive cells
# Total number of O4+ cells per 20× image was manually counted using Adobe Photoshop: • All cell bodies of OPCs with underlying DAPI stain were counted as an O4+ cell • Total number of O4+ cells were recorded in Excel Spreadsheet O4+ cells in mixed brain cultures of wild type mice <P2 treated with compounds of the present disclosure or vehicle were quantified per condition (time point and concentration). The following formula was used to normalize the total cell counts within a compound as well as across compounds treated for the same duration (48h vs. 96h):
# (number of O4+cell counts in Compound X/Average DAPI count for Compound X)*Total Average DAPI count across compounds of same Time Point
# Values were plotted as Scatter Interval plots in Origin. Each data point represents a single image from which O4+ cell values were obtained. Data are presented as mean±S.E.
# Images are at 20× magnification and represent 1-2 coverslips per group. Scale bar, 50 μm.
row,Structure (SMILES),% Increase OPC proliferation
1,"CC(C)(CO)[C@@H](O)C(=O)NCCC(=O)NCCSC(=O)CCC(=O)O [Compound 1, (R)-4-((2-(3-(2,4-dihydroxy-3,3-dimethylbutanamido)propanamido)ethyl)thio)-4-oxobutanoic acid]",≥25%
2,"C[C@@H](O)CC(=O)SCCNC(=O)CCNC(=O)[C@H](O)C(C)(C)CO [Compound 38, S-2-{3-[(R)-2,4-dihydroxy-3,3-dimethylbutyrylamino]propionylamino} ethyl (R)-3-hydroxybutanethioate]",≥25%
3,"CC(C)(CO)[C@@H](O)C(=O)NCCC(=O)NCCSC(=O)CCCN [Compound 370, (2R)—N-[2-([2-[(4-aminobutanoyl)sulfanyl]ethyl]carbamoyl)ethyl]-2,4-dihydroxy-3,3-dimethylbutanamide]",≥10%
4,COC(=O)CC(C(C)=O)C(=O)SCCNC(=O)CCNC(=O)[C@H](O)C(C)(C)CO (some centres unmarked) [Compound 410],≥25%
5,"CC(=O)SCCNC(=O)CCNC(=O)[C@H](O)C(C)(C)COC(=O)[C@@H](N)Cc1ccc(O)c(O)c1 [Compound 498, (3R)-3-[(2-[[2-(acetylsulfanyl)ethyl]carbamoyl]ethyl)carbamoyl]-3-hydroxy-2,2-dimethylpropyl (2S)-2-amino-3-(3,4-dihydroxyphenyl)propanoate]",≥25%

# Test system: Venular Endothelial cells (HUVEC) (3C system)
# Assay: BioMAP 3C system (IL-1β, TNFα, IFNγ)
# Format: cell-based, human
# Conditions: 10 uM; procedure of Example 825
# Protocol: The BioMAP platform (BioMAP® Diversity PLUS® Panel from Eurofins) is an in vitro phenotypic profiling technology that screened the compounds of the present disclosure (hereafter indicated as test agents) in human primary cell-based systems modelling complex tissue and disease states. The BioMAP assays were performed using the Eurofin's BioMAP Technology Platform as (see references 1 to 13 in the example 824 section) to model different diseases on primary cell-based model systems. These systems consisted of either single primary cell types or co-culture cells. Adherent cell types were cultured or co-cultured in 96 or 384-well plates until confluence followed by the addition of compounds prepared in DMSO at a final concentration of ≤0.1%. In each cell-based system, primary cells from heathy donors (2-6 donors) were pooled and treated with compounds at 1 and 10 μM dose 1h prior to stimulation and remain in culture as indicated in Example 825, Example 826, Example 827, Example 828, Example 829, Example 830, Example 831, Example 832, Example 833, Example 834, Example 835, Example 836 and Example 837. For on the BioMAP® Diversity PLUS® Panel, please see the following references, which are incorporate herein.
# Following the general procedure as described in Example 824, Venular Endothelial cells (HUVEC) (3C system) were treated with IL-1β, TNFα, IFNγ for 24h to model Th1 driven cardiovascular and chronic inflammation diseases in the presence or absence of the compounds. Biomarker read out were; Tissue Factor, ICAM-1, E-selectin, uPAR (CD87), IL-8, MIG, HLA-DR, proliferation and SRB (Sulfo-rhodamine i.e. staining for protein content).
Structure (SMILES),% increase in Proliferation (HUVEC),% decrease in IL-8
"CC(C)(CO)[C@@H](O)C(=O)NCCC(=O)NCCSC(=O)[C@@H](N)Cc1ccc(O)c(O)c1 [Compound 371, (2R)—N-[2-[(2-[[(2S)-2-amino-3-(3,4-dihydroxyphenyl)propanoyl]sulfanyl]ethyl)carbamoyl]ethyl]-2,4-dihydroxy-3,3-dimethylbutanamide]",≥10%,–
"CCCCCCC(=O)SCCNC(=O)CCNC(=O)[C@H](O)C(C)(C)CO [Compound 372, (2R)—N-(2-[[2-(heptanoylsulfanyl)ethyl]carbamoyl]ethyl)-2,4-dihydroxy-3,3-dimethylbutanamide]",≥20%,–
"CC(=O)OCC(C)(C)[C@@H](OC(C)=O)C(=O)NCCC(=O)NCCSC(C)=O [Compound 1264, (1R)-3-(acetyloxy)-1-[(2-[[2-(acetylsulfanyl)ethyl]carbamoyl]ethyl)carbamoyl]-2,2-dimethylpropyl acetate]",≥10%,–
"COC(=O)CCC(=O)SCCNC(=O)CCNC(=O)[C@H](OC(=O)CN)C(C)(C)CO [Compound 1294, methyl 4-[(2-[3-[(2R)-2-[(2-aminoacetyl)oxy]-4-hydroxy-3,3-dimethylbutanamido]propanamido]ethyl)sulfanyl]-4-oxobutanoate]",≥20%,≥10%
"COC(=O)CCC(=O)SCCNC(=O)CCNC(=O)[C@H](OC(=O)CNC(C)=O)C(C)(C)CO [Compound 1298, methyl 4-[(2-[3-[(2R)-2-[(2-acetamidoacetyl)oxy]-4-hydroxy-3,3-dimethylbutanamido]propanamido]ethyl)sulfanyl]-4-oxobutanoate]",–,≥10%
